# According to article PMC6162207, “Identification and pharmaceutical evaluation of novel frog skin-derived serine proteinase inhibitor peptide–PE-BBI (Pelophylax esculentus Bowman-Birk inhibitor) for the potential treatment of cancer” (Scientific Reports, 2018):
# Positions of bridges follow the written chain, without caps; N, C: chain ends. Residues, ends and D or L forms follow the SMILES beside them.
# Key:
# [1] = target: T1, trypsin from bovine pancreas (Bos taurus, UniProt P00760); test: Trypsin inhibitory assay; type: biochemical
# T1 construct: purchased Sigma/Aldrich, Poole, Dorset, UK; host or cells: bovine pancreas
# T1 sequence (P00760 24-246): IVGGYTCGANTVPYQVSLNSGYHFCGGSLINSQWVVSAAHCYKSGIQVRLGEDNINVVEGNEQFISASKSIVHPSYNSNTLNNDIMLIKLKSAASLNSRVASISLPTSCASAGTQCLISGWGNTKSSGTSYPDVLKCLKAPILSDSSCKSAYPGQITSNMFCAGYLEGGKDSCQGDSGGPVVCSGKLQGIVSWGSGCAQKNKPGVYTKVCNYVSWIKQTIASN
# [2] = test system: rat-tail artery smooth muscle; parameters: species or system rat (female Wistar)
# Method: Female Wistar rats (250–300 g) were applied in this study and sacrificed followed the principle of institutional animal experimentation ethics and UK animal research guidelines. All of the procedures involved in this study was approved by IACUC of Queen’s University Belfast. Rat-tail artery and bladder were isolated and located in pre-chilled Kreb’s solution equilibrated with 95% O2, 5% CO2[51]. Isolated muscle strips (2–10 mm) were vertically suspended in a 2 mL organ bath containing 37 °C Kreb’s solution. The Kreb’s solution was constant refreshing by constant flowing (2 mL/min) during the assay. Potassium chloride (KCL, 60 mM) was used to test for viability of muscle strips after 20 min equilibration. After the smooth muscle strip were prepared, the synthetic replicates of PE-BBI (10^−11 to 10^−5 M) was used to quantify the myogenic potency on rat-tail artery and bladder smooth muscle. Between each concentration, the smooth muscle strip was washed 5 mins and re-equilibration for another 5 min. Each data point was repeated on at least five independent muscle strips. The tension change was amplified and recorded by a PowerLab System (AD Instruments Pty Ltd.)[51].
# [3] = test system: Escherichia coli (NCTC 10418); test: Antimicrobial MIC assay, E. coli; type: cell-based; conditions: 1 to 512 μM, MHB, 18 h, 37 °C, 6 replicates, absorbance 550 nm; data not shown
# Method: (§1) Gram-negative bacteria Escherichia coli (NCTC 10418); Gram-positive bacteria Staphylococcus aureus (NCTC 10788) and pathogenic yeast Candida albicans (NCYC 1467) were used in minimum inhibitory concentration (MIC) assays to investigate the board antimicrobial activity ability of synthetic PE-BBI. Microorganisms involved in MIC assays were cultured in MHB for 16–18 h. Then sub-cultured for 2~4 h to allow the microorganism to enter the logarithmic growth phase. Subsequently, proper density of bacterial (1 × 10^6 colony forming units (cfu)/mL) and fungi (1 × 10^5 cfu/mL) were seeded into 96 well plate. Different concentration ranged from 1 to 512 μM of PE-BBI were added into each well (6 replicates per concentration). The absorbance value at 550 nm was detected using a Synergy HT plate reader (Biotech, Minneapolis, MN, USA) after 18 h incubation in 37 °C incubator[50].
# [4] = test system: Staphylococcus aureus (NCTC 10788); test: Antimicrobial MIC assay, S. aureus; type: cell-based; conditions: 1 to 512 μM, MHB, 18 h, 37 °C, 6 replicates, absorbance 550 nm; data not shown
# Method: as §1
# [5] = test system: Candida albicans (NCYC 1467); test: Antimicrobial MIC assay, C. albicans; type: cell-based; conditions: 1 to 512 μM, MHB, 18 h, 37 °C, 6 replicates, absorbance 550 nm; data not shown
# Method: as §1
smiles,measurement,setting,value
CC[C@H](C)[C@@H]1NC(=O)[C@H](CO)NC(=O)[C@H](CCCCN)NC(=O)[C@H]([C@@H](C)O)NC(=O)[C@H](Cc2c[nH]c3ccccc23)NC(=O)[C@@H](NC(=O)CNC(=O)[C@H](CCCCN)NC(=O)[C@H](CC(C)C)NC(=O)[C@H](C)NC(=O)CN)CSSC[C@@H](C(=O)N[C@@H](CCCCN)C(N)=O)NC(=O)[C@@H]2CCCN2C(=O)[C@H](CCCCN)NC(=O)[C@@H]2CCCN2C(=O)[C@@H]2CCCN2C1=O [PE-BBI] (H-GALKGCWTKSIPPKPCK-NH2; disulfide 6-16; N-terminus assumed),Ki,[1],0.31 ± 0.072 µM
same,mode of trypsin inhibition,[1]; PE-BBI 0.1–100 µM,competitive reversible trypsin inhibitory activity
same,EC50,[2],0.00879 µM
same,"antimicrobial activity (MIC), E. coli",[3],didn’t show any obviously antibacterial activity even in the highest concentration (512 μM)
same,"antimicrobial activity (MIC), S. aureus",[4],didn’t show any obviously antibacterial activity even in the highest concentration (512 μM)
same,"antimicrobial activity (MIC), C. albicans",[5],didn’t show any obviously antibacterial activity even in the highest concentration (512 μM)
